{"source": "the supplement of paper PMC10307832", "experiment_in_all_cases": "relative viability (nuclei count vs DMSO), 5 days (fraction); higher = more cells survive", "key": {"[1]": {"compound": "Cc1ccc(C(=O)N(CCCN)[C@@H](c2nc3cc(Cl)ccc3c(=O)n2Cc2ccccc2)C(C)C)cc1 [Ispinesib] + CS(=O)(=O)CCNCc1ccc(-c2ccc3ncnc(Nc4ccc(OCc5cccc(F)c5)c(Cl)c4)c3c2)o1 [Lapatinib] (partner 2 µM)", "outline": "(§1)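 Lung cancer cell lines, seeded in 1536-well plates, were treated the following day by pin tool with a single drug or with five library-drug doses (not always all listed) in √10 steps on top of a fixed anchor-drug dose. Cells were fixed and nuclei stained in one step after 5 days, and nuclei were counted. Relative viability is the nuclei count for treated wells divided by that for vehicle wells, reported as medians of duplicate plates.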"}, "[2]": {"compound": "Cc1ccc(C(=O)N(CCCN)[C@@H](c2nc3cc(Cl)ccc3c(=O)n2Cc2ccccc2)C(C)C)cc1 [Ispinesib] + CC(=O)c1c(C)c2cnc(Nc3ccc(N4CCNCC4)cn3)nc2n(C2CCCC2)c1=O [Palbociclib] (partner 0.5 µM)", "outline": "as §1"}, "[3]": {"compound": "Cc1ccc(C(=O)N(CCCN)[C@@H](c2nc3cc(Cl)ccc3c(=O)n2Cc2ccccc2)C(C)C)cc1 [Ispinesib] + O=C(c1cc(Cc2n[nH]c(=O)c3ccccc23)ccc1F)N1CCN(C(=O)C2CC2)CC1 [Olaparib] (partner 8 µM)", "outline": "as §1"}, "[4]": {"compound": "Cc1ccc(C(=O)N(CCCN)[C@@H](c2nc3cc(Cl)ccc3c(=O)n2Cc2ccccc2)C(C)C)cc1 [Ispinesib] + C[C@]1(O)C[C@@H](c2nc(-c3ccc4ccc(-c5ccccc5)nc4c3)c3c(N)nccn32)C1 [Linsitinib] (partner 1 µM)", "outline": "as §1"}}}
{"cell line": "NCI-H1755", "values": [{"measurement": "relative viability", "setting": "[1]; first compound 0.001 µM", "result": 1.02}, {"measurement": "relative viability", "setting": "[1]; first compound 0.003162 µM", "result": 1.16}, {"measurement": "relative viability", "setting": "[1]; first compound 0.01 µM", "result": 1.09}, {"measurement": "relative viability", "setting": "[1]; first compound 0.03162 µM", "result": 0.41}, {"measurement": "relative viability", "setting": "[1]; first compound 0.1 µM", "result": 0.203}, {"measurement": "relative viability", "setting": "[2]; first compound 0.001 µM", "result": 0.467}, {"measurement": "relative viability", "setting": "[2]; first compound 0.003162 µM", "result": 0.451}, {"measurement": "relative viability", "setting": "[2]; first compound 0.01 µM", "result": 0.457}, {"measurement": "relative viability", "setting": "[2]; first compound 0.03162 µM", "result": 0.431}, {"measurement": "relative viability", "setting": "[2]; first compound 0.1 µM", "result": 0.463}, {"measurement": "relative viability", "setting": "[3]; first compound 0.001 µM", "result": 0.909}, {"measurement": "relative viability", "setting": "[3]; first compound 0.003162 µM", "result": 0.928}, {"measurement": "relative viability", "setting": "[3]; first compound 0.01 µM", "result": 0.963}, {"measurement": "relative viability", "setting": "[3]; first compound 0.03162 µM", "result": 0.987}, {"measurement": "relative viability", "setting": "[3]; first compound 0.1 µM", "result": 0.759}, {"measurement": "relative viability", "setting": "[4]; first compound 0.001 µM", "result": 1.03}, {"measurement": "relative viability", "setting": "[4]; first compound 0.003162 µM", "result": 1.1}, {"measurement": "relative viability", "setting": "[4]; first compound 0.01 µM", "result": 1.14}, {"measurement": "relative viability", "setting": "[4]; first compound 0.03162 µM", "result": 0.906}, {"measurement": "relative viability", "setting": "[4]; first compound 0.1 µM", "result": 0.422}]}
{"cell line": "NCI-H661", "values": [{"measurement": "relative viability", "setting": "[1]; first compound 0.001 µM", "result": 0.52}, {"measurement": "relative viability", "setting": "[1]; first compound 0.003162 µM", "result": 0.451}, {"measurement": "relative viability", "setting": "[1]; first compound 0.01 µM", "result": 0.444}, {"measurement": "relative viability", "setting": "[1]; first compound 0.03162 µM", "result": 0.406}, {"measurement": "relative viability", "setting": "[1]; first compound 0.1 µM", "result": 0.439}, {"measurement": "relative viability", "setting": "[2]; first compound 0.001 µM", "result": 0.398}, {"measurement": "relative viability", "setting": "[2]; first compound 0.003162 µM", "result": 0.4}, {"measurement": "relative viability", "setting": "[2]; first compound 0.01 µM", "result": 0.406}, {"measurement": "relative viability", "setting": "[2]; first compound 0.03162 µM", "result": 0.282}, {"measurement": "relative viability", "setting": "[2]; first compound 0.1 µM", "result": 0.248}, {"measurement": "relative viability", "setting": "[3]; first compound 0.001 µM", "result": 0.737}, {"measurement": "relative viability", "setting": "[3]; first compound 0.003162 µM", "result": 0.848}, {"measurement": "relative viability", "setting": "[3]; first compound 0.01 µM", "result": 0.805}, {"measurement": "relative viability", "setting": "[3]; first compound 0.03162 µM", "result": 0.505}, {"measurement": "relative viability", "setting": "[3]; first compound 0.1 µM", "result": 0.255}, {"measurement": "relative viability", "setting": "[4]; first compound 0.001 µM", "result": 0.535}, {"measurement": "relative viability", "setting": "[4]; first compound 0.003162 µM", "result": 0.528}, {"measurement": "relative viability", "setting": "[4]; first compound 0.01 µM", "result": 0.462}, {"measurement": "relative viability", "setting": "[4]; first compound 0.03162 µM", "result": 0.494}, {"measurement": "relative viability", "setting": "[4]; first compound 0.1 µM", "result": 0.605}]}
{"cell line": "NCI-H1944", "values": [{"measurement": "relative viability", "setting": "[1]; first compound 0.001 µM", "result": 0.863}, {"measurement": "relative viability", "setting": "[1]; first compound 0.003162 µM", "result": 0.799}, {"measurement": "relative viability", "setting": "[1]; first compound 0.01 µM", "result": 1.01}, {"measurement": "relative viability", "setting": "[1]; first compound 0.03162 µM", "result": 0.528}, {"measurement": "relative viability", "setting": "[1]; first compound 0.1 µM", "result": 0.27}, {"measurement": "relative viability", "setting": "[2]; first compound 0.001 µM", "result": 0.347}, {"measurement": "relative viability", "setting": "[2]; first compound 0.003162 µM", "result": 0.35}, {"measurement": "relative viability", "setting": "[2]; first compound 0.01 µM", "result": 0.353}, {"measurement": "relative viability", "setting": "[2]; first compound 0.03162 µM", "result": 0.279}, {"measurement": "relative viability", "setting": "[2]; first compound 0.1 µM", "result": 0.304}, {"measurement": "relative viability", "setting": "[3]; first compound 0.001 µM", "result": 0.436}, {"measurement": "relative viability", "setting": "[3]; first compound 0.003162 µM", "result": 0.454}, {"measurement": "relative viability", "setting": "[3]; first compound 0.01 µM", "result": 0.491}, {"measurement": "relative viability", "setting": "[3]; first compound 0.03162 µM", "result": 0.418}, {"measurement": "relative viability", "setting": "[3]; first compound 0.1 µM", "result": 0.406}, {"measurement": "relative viability", "setting": "[4]; first compound 0.001 µM", "result": 1.24}, {"measurement": "relative viability", "setting": "[4]; first compound 0.003162 µM", "result": 1.38}, {"measurement": "relative viability", "setting": "[4]; first compound 0.01 µM", "result": 1.18}, {"measurement": "relative viability", "setting": "[4]; first compound 0.03162 µM", "result": 0.975}, {"measurement": "relative viability", "setting": "[4]; first compound 0.1 µM", "result": 0.979}]}
{"cell line": "NCI-H23", "values": [{"measurement": "relative viability", "setting": "[1]; first compound 0.001 µM", "result": 0.915}, {"measurement": "relative viability", "setting": "[1]; first compound 0.003162 µM", "result": 1.16}, {"measurement": "relative viability", "setting": "[1]; first compound 0.01 µM", "result": 1.04}, {"measurement": "relative viability", "setting": "[1]; first compound 0.03162 µM", "result": 0.245}, {"measurement": "relative viability", "setting": "[1]; first compound 0.1 µM", "result": 0.293}, {"measurement": "relative viability", "setting": "[2]; first compound 0.001 µM", "result": 0.457}, {"measurement": "relative viability", "setting": "[2]; first compound 0.003162 µM", "result": 0.529}, {"measurement": "relative viability", "setting": "[2]; first compound 0.01 µM", "result": 0.629}, {"measurement": "relative viability", "setting": "[2]; first compound 0.03162 µM", "result": 0.372}, {"measurement": "relative viability", "setting": "[2]; first compound 0.1 µM", "result": 0.187}, {"measurement": "relative viability", "setting": "[3]; first compound 0.001 µM", "result": 0.306}, {"measurement": "relative viability", "setting": "[3]; first compound 0.003162 µM", "result": 0.379}, {"measurement": "relative viability", "setting": "[3]; first compound 0.01 µM", "result": 0.336}, {"measurement": "relative viability", "setting": "[3]; first compound 0.03162 µM", "result": 0.384}, {"measurement": "relative viability", "setting": "[3]; first compound 0.1 µM", "result": 0.175}, {"measurement": "relative viability", "setting": "[4]; first compound 0.001 µM", "result": 0.568}, {"measurement": "relative viability", "setting": "[4]; first compound 0.003162 µM", "result": 0.559}, {"measurement": "relative viability", "setting": "[4]; first compound 0.01 µM", "result": 0.707}, {"measurement": "relative viability", "setting": "[4]; first compound 0.03162 µM", "result": 0.618}, {"measurement": "relative viability", "setting": "[4]; first compound 0.1 µM", "result": 0.28}]}
